From patent US7632525B2, “Breath freshening and oral cleansing product with magnolia bark extract in combination with surface active agents” (Wm. Wrigley Jr. Company, priority 2002, dated 2009)

What was measured:
Assay type in all cases: cell-based
[1] = system: bacteria from freshly-collected stimulated whole saliva (biofilm); assay: Mixed culture saliva biofilm on saliva-coated hydroxyapatite discs (medium pH and OD 600 nm)
Method: A mixed culture system that utilizes the bacteria from freshly-collected stimulated whole saliva was used. Saliva cell pellets were used to inoculate saliva-coated hydroxyapatite (S-HA) discs. The discs were placed in 24-well cell culture plates and incubated for up to 3 days. Biofilms were exposed to actives on days 2 and 3 (starting at 18 hours), and quantified on day 4. The number of bacteria was determined by spectrophotometric absorbance or optical density (OD) at 600 nm. The five phases of the experiment were: pellicle formation; bacterial attachment; biofilm growth; exposure to actives; and bacterial enumeration. To form the pellicles, HA Discs were ultrasonically washed in deionized water and air-dried, then autoclaved. The discs were placed in a 24 well plate with 1 ml 50% sterile saliva (1 part sterile whole saliva: 1 part saliva buffer, filter sterilize after preparation) for 2 hours with slow agitation at room temperature. The saliva was suctioned and then the discs were transferred to fresh wells for bacterial attachment. The discs were inoculated with salivary bacteria by one of two methods: (1) incubation with saliva bacteria suspended in 50% saliva at a standard OD for 2-h at 37° C.; after the attachment phase the discs are transferred to supplemented saliva growth medium, or (2) direct addition of bacteria with media and incubation. To form the biofilms, the bacterial suspension was removed, and the discs were transferred to fresh wells. One ml of supplemented saliva medium was added and the plate was placed in the incubator for overnight incubation and for the duration of the experiment (up to 72 hours). A stock solution of 1% Magnolia Bark Extract in 60% ethanol was prepared. […] One ml quantities of active ingredients and controls were placed into fresh wells, and the discs transferred to these wells for 5 minutes. The chlorhexidine control exposure was one minute, two times a day to mimic the standard mouth-rinse procedure. The exposure to active ingredient was carried out at 8:00 AM, 12:00 and 4:00 PM. After the timed exposure, the solution was removed and the discs washed twice with PBS and then transferred to fresh medium. For some experiments, the medium used during the day was Tryptic Soy Broth (TSB) with a 50 μl 40% sterile sucrose solution added to each well (to give a 2% sucrose solution). The medium was not replaced after the mid-day exposure. After overnight incubation (day 2), discs were exposed to controls and actives. On day 3 the biofilms were again exposed to tests and controls. On day 4 the discs were removed from the medium, the medium pH was measured to obtain an indication of metabolic activity, and the discs were placed into tubes with 2.5 ml PBS, vortexed for 20s, and then placed into the ultrasonic bath for another 20 sec. The suspension was transferred into cuvettes and the bacterial cell density determined by OD measurements at 600 nm. To evaluate the effect of Magnolia Bark Extract in combination with the surface active agent, sodium lauryl sulfate, five active ingredient solutions were prepared using the procedures described above. […] Also, the MBE solutions were prepared to have a concentration of 500 ppm. Sodium lauryl sulfate was added to two of the Magnolia Bark Extract solutions to obtain SLS concentrations of 0.05% and 0.1% in the Magnolia Bark Extract solutions. The testing with Magnolia Bark Extract described above was repeated with the five solutions.

incubated saliva = assay: MIC of surface active agents and emulsifiers on incubated saliva; conditions: for MIC (ppm): incubated saliva, 24 hours at 37° C.; for germ-kill efficacy: assessment in words of Table 9
Method: To evaluate the germ-kill efficacy and synergist effect when two or more germ-kill actives are combined, testing was performed to determine the ratio of MBE to surface active agent. The germ-kill active and/or surface active agent was dissolved in ethanol or sterile water to give an initial concentration 0.1% to 1%. […] These dilutions were inoculated with representative oral microorganisms, or incubated saliva, and incubated for 24 hours at 37° C. For each surface active agent, the lowest dilution that was not turbid was registered as the MIC. The MBC was determined by transferring 10 microliter of liquid from non-turbid tubes to fresh growth media and incubated for 48 hrs.

S. mutans = assay: MIC and fractional inhibitory index of MBE/surface active agent combinations on S. mutans; conditions: 24 hours at 37° C.
Method: To evaluate the germ-kill efficacy and synergist effect when two or more germ-kill actives are combined, testing was performed to determine the ratio of MBE to surface active agent. […] These dilutions were inoculated with representative oral microorganisms, or incubated saliva, and incubated for 24 hours at 37° C. For each surface active agent, the lowest dilution that was not turbid was registered as the MIC.

Molecule | MIC (ppm) (incubated saliva) | germ-kill efficacy (incubated saliva) | also measured
[H]/N=C(\N/C(=N/[H])NCCCCCCNC(=N)NC(=N)Nc1ccc(Cl)cc1)Nc1ccc(Cl)cc1 [CHX, chlorhexidine] | – | – | % OD reduction ([1]; OD 600 nm vs PBS control, CHX 0.12%, one minute, two times a day): 84%; % OD reduction ([1]; SLS combination experiment, OD 600 nm, CHX 0.1% (1000 ppm)): 94%; pH ([1]; SLS combination experiment, CHX 0.1% (1000 ppm)): 8.8; pH ([1]; medium pH day 4, CHX 0.12%, exposure one minute, two times a day): 8.8
N=C(NCCCCCCNC(=N)NC(=N)Nc1ccc(Cl)cc1)NC(=N)Nc1ccc(Cl)cc1.O=C(O)[C@H](O)[C@@H](O)[C@H](O)[C@H](O)CO.O=C(O)[C@H](O)[C@@H](O)[C@H](O)[C@H](O)CO [Chlorhexidine gluconate, reference compound] | 2 | – | MIC/ppm (S. mutans): 2 ppm
CCCCCCCCCCCCOS(=O)(=O)[O-].[Na+] [SLS, sodium lauryl sulfate] | – | good germ-kill surface active agents | % OD reduction ([1]; SLS combination experiment, OD 600 nm, 1000 ppm): 61%; pH ([1]; SLS combination experiment, 1000 ppm): 5.7
CCCCCCCCCCCC(=O)OCCOCCOCCOCCOCCOCCOCCOCCOCCOCCOCCOCCOCCOCCOCCOCCOCCOCCOCCOCCOCC(OCCOCCOCCOCCOCCOCCOCCOCCOCCOCCOCCOCCOCCOCCOCCOCCOCCOCCOCCOCCO)C1OCC(OCCOCCOCCOCCOCCOCCOCCOCCOCCOCCOCCOCCOCCOCCOCCOCCOCCOCCOCCOCCO)C1OCCOCCOCCOCCOCCOCCOCCOCCOCCOCCOCCOCCOCCOCCOCCOCCOCCOCCOCCOCCO (stereo not shown) [Tween 20, Polysorbate 20] | – | weak or non germ-kill actives | –
Cocamidopropyl Betaine | – | good germ-kill surface active agents | –
Sodium Brasslate | 500 | moderate germ-kill efficacy | –
Sodium Stearoyl Lactylate | >3000 | weak or non germ-kill actives | –
Sucrose Distearate | >500 | weak or non germ-kill actives | –
Sucrose Stearate | >500 | weak or non germ-kill actives | –
